≈ marks a conversion by molar mass, not a printed value.
Key:
Type in all cases: functional
Enterococcus faecium = assay: Antimicrobial activity against Enterococcus faecium ATCC 700221 incubated for 18 to 24 hrs by two-fold serial dilution method
[1] = system: Staphylococcus epidermidis; assay: Antimicrobial activity against methicillin-susceptible Staphylococcus epidermidis ATCC 12228 incubated for 18 to 24 hrs by two-fold serial dilution method
[2] = system: Mycobacterium tuberculosis; assay: Antimicrobial activity against Mycobacterium tuberculosis H37Rv ATCC 27294 incubated for 7 days by microplate Alamar blue assay; conditions: H37Rv ATCC 27294, 168 h
Staphylococcus aureus [3] = assay: Antimicrobial activity against methicillin-resistant Staphylococcus aureus ATCC 33591 incubated for 18 to 24 hrs by two-fold serial dilution method
Staphylococcus aureus [4] = assay: Antimicrobial activity against methicillin-susceptible Staphylococcus aureus ATCC 29213 incubated for 18 to 24 hrs by two-fold serial dilution method
Pseudomonas aeruginosa = assay: Antimicrobial activity against Pseudomonas aeruginosa PAO1 by CLSI-based broth microdilution method
Staphylococcus aureus [5] = assay: Antimicrobial activity against Staphylococcus aureus ATCC 29213 by CLSI-based broth microdilution method; conditions: Staphylococcus aureus, ATCC 29213; read-out: MIC
Escherichia coli = assay: Antimicrobial activity against tolC deficient Escherichia coli KD65 by CLSI-based broth microdilution method; conditions: Escherichia coli, KD65; read-out: MIC

## COc1c(N2CCN(C/C(C)=N/Nc3ccc(Cl)cc3)CC2)c(F)cc2c(=O)c(C(=O)O)cn(C3CC3)c12
Enterococcus faecium
  MIC: 64 mg/L (≈ 118 µM)
[1]
  MIC: 0.125 mg/L (≈ 0.231 µM)
[2]
  MIC: 0.433 µM (≈ 0.235 µg/mL)
Staphylococcus aureus [3]
  MIC: 0.06 mg/L (≈ 0.111 µM)
Staphylococcus aureus [4]
  MIC: 0.06 mg/L (≈ 0.111 µM)

## O=C(O)c1cn(C2CC2)c2c3c(c(F)cc2c1=O)N1CCCC1CCO3 (configuration not stated)
Pseudomonas aeruginosa
  MIC: 21 mg/L (≈ 58.6 µM)
Staphylococcus aureus [5]
  MIC: 0.21 mg/L (≈ 0.586 µM)
Escherichia coli
  MIC: 0.008 mg/L (≈ 0.0223 µM)

## N[C@@H]1CCN2c3c(F)cc4c(=O)c(C(=O)O)cn(C5CC5)c4c3C=C[C@H]12
Pseudomonas aeruginosa
  MIC: > 64 mg/L
Staphylococcus aureus [5]
  MIC: 8 mg/L (≈ 22.5 µM)
Escherichia coli
  MIC: 1 mg/L (≈ 2.81 µM)

## COc1c(N2CCN(C/C(C)=N/Nc3nc4ccccc4s3)CC2)c(F)cc2c(=O)c(C(=O)O)cn(C3CC3)c12
Enterococcus faecium
  MIC: 64 mg/L (≈ 113 µM)
[1]
  MIC: 0.5 mg/L (≈ 0.886 µM)
[2]
  MIC: 0.313 µM (≈ 0.177 µg/mL)
Staphylococcus aureus [3]
  MIC: 0.5 mg/L (≈ 0.886 µM)
Staphylococcus aureus [4]
  MIC: 0.25 mg/L (≈ 0.443 µM)

## O=C(O)c1cn(C2CC2)c2c3c(c(F)cc2c1=O)N1CCCC1CS(=O)(=O)C3 (configuration not stated)
Pseudomonas aeruginosa
  MIC: > 64 mg/L
Staphylococcus aureus [5]
  MIC: 1 mg/L (≈ 2.46 µM)
Escherichia coli
  MIC: 0.25 mg/L (≈ 0.615 µM)

## COc1c(N2CCN(C/C(C)=N/Nc3nc4ccccc4[nH]3)CC2)c(F)cc2c(=O)c(C(=O)O)cn(C3CC3)c12
Enterococcus faecium
  MIC: 128 mg/L (≈ 234 µM)
[1]
  MIC: 1 mg/L (≈ 1.83 µM)
[2]
  MIC: 0.434 µM (≈ 0.238 µg/mL)
Staphylococcus aureus [3]
  MIC: 1 mg/L (≈ 1.83 µM)
Staphylococcus aureus [4]
  MIC: 1 mg/L (≈ 1.83 µM)

## N[C@H]1C[C@H]2CCOc3c(c(F)cc4c(=O)c(C(=O)O)cn(C5CC5)c34)N2C1
Pseudomonas aeruginosa
  MIC: 0.093 mg/L (≈ 0.249 µM)
Staphylococcus aureus [5]
  MIC: 0.015 mg/L (≈ 0.0402 µM)
Escherichia coli
  MIC: 0.004 mg/L (≈ 0.0107 µM)

## COc1c(N2CCN(C/C(C)=N/Nc3ccnc4cc(Cl)ccc34)CC2)c(F)cc2c(=O)c(C(=O)O)cn(C3CC3)c12
Enterococcus faecium
  MIC: > 128 mg/L
[1]
  MIC: 1 mg/L (≈ 1.69 µM)
[2]
  MIC: 0.266 µM (≈ 0.158 µg/mL)
Staphylococcus aureus [3]
  MIC: 0.5 mg/L (≈ 0.843 µM)
Staphylococcus aureus [4]
  MIC: 0.5 mg/L (≈ 0.843 µM)

## N[C@@H]1CCN2c3c(F)cc4c(=O)c(C(=O)O)cn(C5CC5)c4c3/C=C\CC[C@H]12
Pseudomonas aeruginosa
  MIC: 32 mg/L (≈ 83.5 µM)
Staphylococcus aureus [5]
  MIC: 4 mg/L (≈ 10.4 µM)
Escherichia coli
  MIC: 0.25 mg/L (≈ 0.652 µM)

## N[C@@H]1C[C@H]2CCCc3c(c(F)cc4c(=O)c(C(=O)O)cn(C5CC5)c34)N2C1
Pseudomonas aeruginosa
  MIC: 32 mg/L (≈ 86.2 µM)
Staphylococcus aureus [5]
  MIC: 8 mg/L (≈ 21.5 µM)
Escherichia coli
  MIC: 8 mg/L (≈ 21.5 µM)

## N[C@@H]1CCN2c3c(F)cc4c(=O)c(C(=O)O)cn(C5CC5)c4c3SC[C@H]12
Pseudomonas aeruginosa
  MIC: 4 mg/L (≈ 10.7 µM)
Staphylococcus aureus [5]
  MIC: 0.125 mg/L (≈ 0.333 µM)
Escherichia coli
  MIC: 0.03 mg/L (≈ 0.0799 µM)

## O=C(O)c1cn(C2CC2)c2c3c(c(F)cc2c1=O)N1CCCC1C(=O)NC3 (configuration not stated)
Pseudomonas aeruginosa
  MIC: > 64 mg/L
Staphylococcus aureus [5]
  MIC: 16 mg/L (≈ 43.1 µM)
Escherichia coli
  MIC: 8 mg/L (≈ 21.5 µM)

## CC(=O)N1Cc2c(c(F)cc3c(=O)c(C(=O)O)cn(C4CC4)c23)N2CCCC2C1 (configuration not stated)
Pseudomonas aeruginosa
  MIC: > 16 mg/L
Staphylococcus aureus [5]
  MIC: 0.082 mg/L (≈ 0.205 µM)
Escherichia coli
  MIC: 0.2 mg/L (≈ 0.501 µM)

## O=C(O)c1cn(C2CC2)c2c3c(c(F)cc2c1=O)N1CCCC1COC3 (configuration not stated)
Pseudomonas aeruginosa
  MIC: > 64 mg/L
Staphylococcus aureus [5]
  MIC: 0.5 mg/L (≈ 1.4 µM)
Escherichia coli
  MIC: 1 mg/L (≈ 2.79 µM)

## COc1c(N2CCN(C/C(C)=N/Nc3ccc(C(F)(F)F)cc3)CC2)c(F)cc2c(=O)c(C(=O)O)cn(C3CC3)c12
Enterococcus faecium
  MIC: 64 mg/L (≈ 111 µM)
[1]
  MIC: 0.25 mg/L (≈ 0.434 µM)
[2]
  MIC: 0.394 µM (≈ 0.227 µg/mL)
Staphylococcus aureus [3]
  MIC: 0.125 mg/L (≈ 0.217 µM)
Staphylococcus aureus [4]
  MIC: 0.125 mg/L (≈ 0.217 µM)

## N[C@@H]1CCN2c3c(F)cc4c(=O)c(C(=O)O)cn(C5CC5)c4c3COC[C@H]12
Pseudomonas aeruginosa
  MIC: 0.5 mg/L (≈ 1.34 µM)
Staphylococcus aureus [5]
  MIC: 2 mg/L (≈ 5.36 µM)
Escherichia coli
  MIC: 0.004 mg/L (≈ 0.0107 µM)

## COc1c(N2CCN(C/C(C)=N/Nc3ccccc3)CC2)c(F)cc2c(=O)c(C(=O)O)cn(C3CC3)c12
Enterococcus faecium
  MIC: 64 mg/L (≈ 126 µM)
[1]
  MIC: 0.25 mg/L (≈ 0.493 µM)
[2]
  MIC: 0.398 µM (≈ 0.202 µg/mL)
Staphylococcus aureus [3]
  MIC: 0.25 mg/L (≈ 0.493 µM)
Staphylococcus aureus [4]
  MIC: 0.25 mg/L (≈ 0.493 µM)

## COc1c(N2CCN(C/C(C)=N/Nc3ccccn3)CC2)c(F)cc2c(=O)c(C(=O)O)cn(C3CC3)c12
Enterococcus faecium
  MIC: 64 mg/L (≈ 126 µM)
[1]
  MIC: 0.125 mg/L (≈ 0.246 µM)
[2]
  MIC: 0.372 µM (≈ 0.189 µg/mL)
Staphylococcus aureus [3]
  MIC: 0.125 mg/L (≈ 0.246 µM)
Staphylococcus aureus [4]
  MIC: 0.125 mg/L (≈ 0.246 µM)

## N[C@H]1CCN2c3c(F)cc4c(=O)c(C(=O)O)cn(C5CC5)c4c3CNC[C@H]12
Pseudomonas aeruginosa
  MIC: 0.5 mg/L (≈ 1.34 µM)
Staphylococcus aureus [5]
  MIC: 1 mg/L (≈ 2.69 µM)
Escherichia coli
  MIC: ≤ 0.06 mg/L

## O=C(O)c1cn(C2CC2)c2c3c(c(F)cc2c1=O)N1CCCC1C/C(=N\O)C3 (configuration not stated)
Pseudomonas aeruginosa
  MIC: > 16 mg/L
Staphylococcus aureus [5]
  MIC: 0.125 mg/L (≈ 0.324 µM)
Escherichia coli
  MIC: 0.03 mg/L (≈ 0.0778 µM)

## N[C@@H]1CCN2c3c(F)cc4c(=O)c(C(=O)O)cn(C5CC5)c4c3CC[C@H]12
Pseudomonas aeruginosa
  MIC: 0.5 mg/L (≈ 1.4 µM)
Staphylococcus aureus [5]
  MIC: 0.03 mg/L (≈ 0.0839 µM)
Escherichia coli
  MIC: 0.004 mg/L (≈ 0.0112 µM)

## N[C@@H]1C[C@@H]2CCCc3c(c(F)cc4c(=O)c(C(=O)O)cn(C5CC5)c34)N2C1
Pseudomonas aeruginosa
  MIC: 1 mg/L (≈ 2.69 µM)
Staphylococcus aureus [5]
  MIC: 0.25 mg/L (≈ 0.673 µM)
Escherichia coli
  MIC: 0.25 mg/L (≈ 0.673 µM)

## O=C(O)c1cn(C2CC2)c2c(cc(F)c3c2nnn3-c2ccc(F)cc2)c1=O
Pseudomonas aeruginosa
  MIC: 40 mg/L (≈ 105 µM)
Staphylococcus aureus [5]
  MIC: 0.06 mg/L (≈ 0.157 µM)
Escherichia coli
  MIC: 0.25 mg/L (≈ 0.654 µM)

## CN1Cc2c(c(F)cc3c(=O)c(C(=O)O)cn(C4CC4)c23)N2CCCC2C1 (configuration not stated)
Pseudomonas aeruginosa
  MIC: > 64 mg/L
Staphylococcus aureus [5]
  MIC: 32 mg/L (≈ 86.2 µM)
Escherichia coli
  MIC: 2 mg/L (≈ 5.38 µM)

## N[C@@H]1C[C@H]2COCc3c(c(F)cc4c(=O)c(C(=O)O)cn(C5CC5)c34)N2C1
Pseudomonas aeruginosa
  MIC: 0.25 mg/L (≈ 0.67 µM)
Staphylococcus aureus [5]
  MIC: 0.015 mg/L (≈ 0.0402 µM)
Escherichia coli
  MIC: 0.008 mg/L (≈ 0.0214 µM)

## COc1cccc(N/N=C(\C)CN2CCN(c3c(F)cc4c(=O)c(C(=O)O)cn(C5CC5)c4c3OC)CC2)c1
Enterococcus faecium
  MIC: > 64 mg/L
[1]
  MIC: 0.25 mg/L (≈ 0.465 µM)
[2]
  MIC: 0.434 µM (≈ 0.233 µg/mL)
Staphylococcus aureus [3]
  MIC: 0.125 mg/L (≈ 0.233 µM)
Staphylococcus aureus [4]
  MIC: 0.125 mg/L (≈ 0.233 µM)

## O=C(O)c1cn(C2CC2)c2c3c(c(F)cc2c1=O)N1CCCC1CN=C3 (configuration not stated)
Pseudomonas aeruginosa
  MIC: 2 mg/L (≈ 5.63 µM)
Staphylococcus aureus [5]
  MIC: 0.25 mg/L (≈ 0.703 µM)
Escherichia coli
  MIC: 0.25 mg/L (≈ 0.703 µM)
